According to US20220168307A1, “TREATMENT OF SMA” (Hoffmann-La Roche Inc., priority 2019, published 2022):
“And” between values parts separate entries of the source, which are not always exact repeats. Equal values may be shown once. “Also recorded” adds a separate entry of the source. Read-outs that look alike come from different tables or passages of the source.

Legend:
CYP2C8 [1] = target: T1, CYP2C8 (Homo sapiens, UniProt P10632); assay: biochemical
T1 sequence (P10632 1-490): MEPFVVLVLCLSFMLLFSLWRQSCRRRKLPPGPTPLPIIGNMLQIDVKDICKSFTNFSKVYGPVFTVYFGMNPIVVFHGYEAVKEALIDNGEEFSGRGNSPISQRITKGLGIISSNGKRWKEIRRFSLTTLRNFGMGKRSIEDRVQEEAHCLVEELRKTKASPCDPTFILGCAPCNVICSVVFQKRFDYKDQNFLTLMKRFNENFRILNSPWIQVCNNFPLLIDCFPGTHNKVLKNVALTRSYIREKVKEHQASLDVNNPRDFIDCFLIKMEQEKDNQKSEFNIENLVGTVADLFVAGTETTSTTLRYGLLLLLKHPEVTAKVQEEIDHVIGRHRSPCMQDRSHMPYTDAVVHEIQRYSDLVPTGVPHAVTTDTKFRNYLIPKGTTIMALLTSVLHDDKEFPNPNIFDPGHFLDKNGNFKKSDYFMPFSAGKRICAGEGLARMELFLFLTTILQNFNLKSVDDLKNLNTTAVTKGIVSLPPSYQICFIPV

CYP2C9 [2] = target: T2, CYP2C9 (Homo sapiens, UniProt P11712); assay: in vitro; settings: pooled human liver microsomes, pH 7.4, probe diclofenac
CYP3A4 [3] = target: T3, CYP3A4 (Homo sapiens, UniProt P08684); assay: Direct inhibition of CYP3A4 (midazolam and testosterone) in human liver microsomes; type: in vitro ADME; settings: human, microsomes
CYP2C9 [4] = target: T2, CYP2C9; assay: biochemical
CYP1A2 [5] = target: T4, CYP1A2 (Homo sapiens, UniProt P05177); assay: biochemical
T4 sequence (P05177 1-516): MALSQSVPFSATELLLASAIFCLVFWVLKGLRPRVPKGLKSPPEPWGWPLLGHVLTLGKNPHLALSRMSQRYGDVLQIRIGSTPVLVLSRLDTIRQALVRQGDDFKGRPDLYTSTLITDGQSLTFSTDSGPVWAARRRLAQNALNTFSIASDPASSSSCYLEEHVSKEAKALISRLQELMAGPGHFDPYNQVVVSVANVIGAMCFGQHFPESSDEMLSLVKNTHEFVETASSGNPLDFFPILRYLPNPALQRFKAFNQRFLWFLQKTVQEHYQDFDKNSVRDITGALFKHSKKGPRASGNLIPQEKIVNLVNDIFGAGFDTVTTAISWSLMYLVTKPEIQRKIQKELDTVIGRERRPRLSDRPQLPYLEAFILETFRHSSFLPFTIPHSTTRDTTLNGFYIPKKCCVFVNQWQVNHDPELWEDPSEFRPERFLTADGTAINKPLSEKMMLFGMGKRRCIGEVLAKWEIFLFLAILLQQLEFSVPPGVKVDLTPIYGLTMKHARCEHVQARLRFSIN

CYP1A2 [6] = target: T4, CYP1A2; assay: Time-dependent inhibition (IC50 shift) of CYP1A2 in human liver microsomes; type: in vitro ADME; settings: risdiplam up to 12.5 μM
Description: (§1) Donors CMV negative for serology are unm
(§2) All incubations were conducted in duplicate.
(§3) % remaining=(C+I/C^−I)*100

CYP3A4 [7] = target: T3, CYP3A4; assay: in vitro; settings: for % Remaining: duplicates; for IC50: human, microsomes, 30 min pre-incubation
Description: as §1, §2, §3

CYP3A4 [8] = target: T3, CYP3A4; assay: Direct inhibition of CYP3A4 (midazolam and testosterone) in human liver microsomes; type: in vitro ADME; set-up: rows headed: % Control activity at; substrate Midazolam; concentration not given; duplicates; % Control activity at; substrate Testosterone; % Remaining; other: direct; CYP3A4-Midazolam Activity; risdiplam 0.20 μM; risdiplam 0.10 μM; dupl; settings: for % Remaining / maximal inhibition: direct; for maximal inhibition: risdiplam tested up to 12.5 μM; for activity: pH 7.4, direct inhibition, read-out: % Control activity at
CYP2C19 = CYP2C19 (Homo sapiens, UniProt P33261); assay: Time-dependent inhibition (IC50 shift) of CYP2C19 in human liver microsomes; settings: risdiplam up to 12.5 μM
CYP2C8 [9] = target: T1, CYP2C8; assay: Time-dependent inhibition (IC50 shift) of CYP2C8 in human liver microsomes; settings: risdiplam up to 12.5 μM
Description: as §1, §2, §3

T3 sequence (P08684 2-503): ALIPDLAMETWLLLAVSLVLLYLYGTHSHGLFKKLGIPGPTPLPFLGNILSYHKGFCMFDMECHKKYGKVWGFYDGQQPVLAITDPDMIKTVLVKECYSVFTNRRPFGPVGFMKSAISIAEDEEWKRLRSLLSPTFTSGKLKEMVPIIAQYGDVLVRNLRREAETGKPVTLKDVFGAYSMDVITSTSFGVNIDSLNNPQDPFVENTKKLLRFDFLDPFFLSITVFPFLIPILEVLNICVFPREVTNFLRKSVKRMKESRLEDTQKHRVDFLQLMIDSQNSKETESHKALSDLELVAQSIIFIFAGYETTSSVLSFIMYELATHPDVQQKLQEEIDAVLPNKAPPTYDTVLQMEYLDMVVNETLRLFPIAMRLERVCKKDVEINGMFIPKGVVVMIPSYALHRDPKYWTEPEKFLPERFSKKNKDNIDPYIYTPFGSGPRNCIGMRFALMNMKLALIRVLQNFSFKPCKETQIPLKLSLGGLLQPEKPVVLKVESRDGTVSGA
Chain of CYP2C19 (P33261 whole entry): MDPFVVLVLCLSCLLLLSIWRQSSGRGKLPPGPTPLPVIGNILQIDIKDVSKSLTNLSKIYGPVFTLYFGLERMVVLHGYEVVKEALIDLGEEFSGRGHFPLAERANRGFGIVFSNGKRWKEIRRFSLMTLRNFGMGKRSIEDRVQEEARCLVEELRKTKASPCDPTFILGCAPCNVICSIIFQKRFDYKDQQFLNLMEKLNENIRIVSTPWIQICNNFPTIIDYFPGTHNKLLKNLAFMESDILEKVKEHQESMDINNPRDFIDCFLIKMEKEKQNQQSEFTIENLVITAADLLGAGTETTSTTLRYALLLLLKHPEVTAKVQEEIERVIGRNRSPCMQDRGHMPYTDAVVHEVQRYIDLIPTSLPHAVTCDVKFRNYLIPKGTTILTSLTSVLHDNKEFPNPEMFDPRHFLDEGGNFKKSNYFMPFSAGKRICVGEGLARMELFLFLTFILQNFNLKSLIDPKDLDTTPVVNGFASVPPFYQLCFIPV
T2 sequence (P11712 whole entry): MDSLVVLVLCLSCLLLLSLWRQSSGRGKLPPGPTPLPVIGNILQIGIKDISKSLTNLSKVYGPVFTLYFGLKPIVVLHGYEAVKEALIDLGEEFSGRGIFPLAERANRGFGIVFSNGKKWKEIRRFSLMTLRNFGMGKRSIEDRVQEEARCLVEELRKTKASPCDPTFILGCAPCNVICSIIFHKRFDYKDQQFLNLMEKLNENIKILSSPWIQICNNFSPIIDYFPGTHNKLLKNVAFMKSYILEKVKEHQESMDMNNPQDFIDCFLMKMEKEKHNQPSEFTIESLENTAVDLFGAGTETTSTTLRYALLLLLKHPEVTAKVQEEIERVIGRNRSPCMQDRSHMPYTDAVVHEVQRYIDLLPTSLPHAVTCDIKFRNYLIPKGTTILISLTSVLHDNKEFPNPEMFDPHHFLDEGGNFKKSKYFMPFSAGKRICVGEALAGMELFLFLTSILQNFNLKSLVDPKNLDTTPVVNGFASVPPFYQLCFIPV

Cc1cn2nc(-c3cc(=O)n4cc(N5CCNC6(CC6)C5)ccc4n3)cc(C)c2n1 [risdiplam, 7-(4,7-diazaspiro[2.5]octan-7-yl)-2-(2,8-dimethylimidazo[1,2-b]pyridazin-6-yl)pyrido[1,2-a]pyrimidin-4-one]
IC50 (CYP2C8 [1]): > 12.5 µM
activity (CYP2C9 [2]): 83%
IC50 (CYP3A4 [3]; pH 7.4, IC50, direct inhibition, substrate Midazolam): > 12.5 µM
IC50 (CYP3A4 [3]; pH 7.4, IC50, direct inhibition, substrate Testosterone): 11 µM
IC50 (CYP3A4 [3]; pH 7.4, IC50, direct, CYP3A4-Midazolam Activity): < 12.5 µM
IC50 (CYP2C9 [4]): > 12.5 µM
IC50 (CYP1A2 [5]): > 12.5 µM
time-dependent inhibition (in words) (CYP1A2 [6]): did not show any significant reversible or time-dependent inhibition; also recorded: No significant reversible or time-dependent inhibition; also recorded: No significant time-dependent inhibition; also recorded: low potential to cause direct or time-dependent inhibition
% Remaining (CYP3A4 [7]; CYP3A4-Midazolam, minus NADPH, risdiplam pre-incubation 0.10 μM): 88% and 103%
% Remaining (CYP3A4 [7]; CYP3A4-Midazolam, minus NADPH, risdiplam pre-incubation 0.20 μM): 99% and 103%
% Remaining (CYP3A4 [7]; CYP3A4-Midazolam, minus NADPH, risdiplam pre-incubation 0.50 μM): 99% and 108%
% Remaining (CYP3A4 [7]; CYP3A4-Midazolam, minus NADPH, risdiplam pre-incubation 1.3 μM): 99% and 110%
% Remaining (CYP3A4 [7]; CYP3A4-Midazolam, minus NADPH, risdiplam pre-incubation 3.2 μM): 99% and 100%
% Remaining (CYP3A4 [7]; CYP3A4-Midazolam, minus NADPH, risdiplam pre-incubation 8.0 μM): 95% and 106%
% Remaining (CYP3A4 [7]; CYP3A4-Midazolam, minus NADPH, risdiplam pre-incubation 12.5 μM): 115% and 108%
% Remaining (CYP3A4 [7]; CYP3A4-Midazolam, plus NADPH, risdiplam pre-incubation 0.10 μM): 101% and 105%
% Remaining (CYP3A4 [7]; CYP3A4-Midazolam, plus NADPH, risdiplam pre-incubation 0.20 μM): 101% and 109%
% Remaining (CYP3A4 [7]; CYP3A4-Midazolam, plus NADPH, risdiplam pre-incubation 0.50 μM): 94% and 109%
% Remaining (CYP3A4 [7]; CYP3A4-Midazolam, plus NADPH, risdiplam pre-incubation 1.3 μM): 90% and 96%
% Remaining (CYP3A4 [7]; CYP3A4-Midazolam, plus NADPH, risdiplam pre-incubation 3.2 μM): 60% and 64%
% Remaining (CYP3A4 [7]; CYP3A4-Midazolam, plus NADPH, risdiplam pre-incubation 8.0 μM): 28% and 30%
% Remaining (CYP3A4 [7]; CYP3A4-Midazolam, plus NADPH, risdiplam pre-incubation 12.5 μM): 22% and 21%
% Remaining (CYP3A4 [7]; CYP3A4-Testosterone, minus NADPH, risdiplam pre-incubation 0.10 μM): 101% and 99%
% Remaining (CYP3A4 [7]; CYP3A4-Testosterone, minus NADPH, risdiplam pre-incubation 0.20 μM): 94% and 93%
% Remaining (CYP3A4 [7]; CYP3A4-Testosterone, minus NADPH, risdiplam pre-incubation 0.50 μM): 100% and 93%
% Remaining (CYP3A4 [7]; CYP3A4-Testosterone, minus NADPH, risdiplam pre-incubation 1.3 μM): 102% and 95%
% Remaining (CYP3A4 [7]; CYP3A4-Testosterone, minus NADPH, risdiplam pre-incubation 3.2 μM): 93% and 102%
% Remaining (CYP3A4 [7]; CYP3A4-Testosterone, minus NADPH, risdiplam pre-incubation 8.0 μM): 90% and 88%
% Remaining (CYP3A4 [7]; CYP3A4-Testosterone, minus NADPH, risdiplam pre-incubation 12.5 μM): 89%
% Remaining (CYP3A4 [7]; CYP3A4-Testosterone, plus NADPH, risdiplam pre-incubation 0.10 μM): 97% and 95%
% Remaining (CYP3A4 [7]; CYP3A4-Testosterone, plus NADPH, risdiplam pre-incubation 0.20 μM): 98% and 93%
% Remaining (CYP3A4 [7]; CYP3A4-Testosterone, plus NADPH, risdiplam pre-incubation 0.50 μM): 94% and 92%
% Remaining (CYP3A4 [7]; CYP3A4-Testosterone, plus NADPH, risdiplam pre-incubation 1.3 μM): 90% and 85%
% Remaining (CYP3A4 [7]; CYP3A4-Testosterone, plus NADPH, risdiplam pre-incubation 3.2 μM): 63% and 62%
% Remaining (CYP3A4 [7]; CYP3A4-Testosterone, plus NADPH, risdiplam pre-incubation 8.0 μM): 23% and 24%
% Remaining (CYP3A4 [7]; CYP3A4-Testosterone, plus NADPH, risdiplam pre-incubation 12.5 μM): 13%
IC50 (CYP3A4 [7]; pH 7.4, IC50, CYP3A4-Midazolam Inactivation, minus NADPH): > 12.5 µM
IC50 (CYP3A4 [7]; pH 7.4, IC50, CYP3A4-Midazolam Inactivation, plus NADPH): 4.8 µM
IC50 (CYP3A4 [7]; pH 7.4, IC50, CYP3A4-Testosterone Inactivation, minus NADPH): > 12.5 µM
IC50 (CYP3A4 [7]; pH 7.4, IC50, CYP3A4-Testosterone Inactivation, plus NADPH): 4.1 µM
% Control activity at (CYP3A4 [8]; direct inhibition, substrate Testosterone, concentration not given, duplicates): 46%
% Remaining (CYP3A4 [8]; CYP3A4-Midazolam Activity, risdiplam 0.10 μM, duplicates): 100% and 96%
% Remaining (CYP3A4 [8]; CYP3A4-Midazolam Activity, risdiplam 0.20 μM, duplicates): 99% and 102%
% Remaining (CYP3A4 [8]; CYP3A4-Midazolam Activity, risdiplam 0.50 μM, duplicates): 101% and 100%
% Remaining (CYP3A4 [8]; CYP3A4-Midazolam Activity, risdiplam 1.3 μM, duplicates): 108% and 91%
% Remaining (CYP3A4 [8]; CYP3A4-Midazolam Activity, risdiplam 3.2 μM, duplicates): 94% and 97%
% Remaining (CYP3A4 [8]; CYP3A4-Midazolam Activity, risdiplam 8.0 μM, duplicates): 84% and 83%
% Remaining (CYP3A4 [8]; CYP3A4-Midazolam Activity, risdiplam 12.5 μM, duplicates): 72%
% Remaining (CYP3A4 [8]; CYP3A4-Testosterone Activity, risdiplam 0.10 μM, duplicates): 98%
% Remaining (CYP3A4 [8]; CYP3A4-Testosterone Activity, risdiplam 0.20 μM, duplicates): 98% and 96%
% Remaining (CYP3A4 [8]; CYP3A4-Testosterone Activity, risdiplam 0.50 μM, duplicates): 96% and 95%
% Remaining (CYP3A4 [8]; CYP3A4-Testosterone Activity, risdiplam 1.3 μM, duplicates): 93% and 92%
% Remaining (CYP3A4 [8]; CYP3A4-Testosterone Activity, risdiplam 3.2 μM, duplicates): 78% and 79%
% Remaining (CYP3A4 [8]; CYP3A4-Testosterone Activity, risdiplam 8.0 μM, duplicates): 58%
% Remaining (CYP3A4 [8]; CYP3A4-Testosterone Activity, risdiplam 12.5 μM, duplicates): 44% and 46%
maximal inhibition (CYP3A4 [8]; midazolam as substrate): 28%
maximal inhibition (CYP3A4 [8]; testosterone as substrate): 55%
IC50 (CYP3A4 [8]; human, microsomes, pH 7.4, IC50, direct, CYP3A4-Testosterone Activity (6β-hydroxylation), testosterone 50 μM): 11 µM
activity (CYP3A4 [8]; human, microsomes, substrate Midazolam, concentration not given, duplicates): 72%
activity (CYP3A4 [8]; human, microsomes, substrate Testosterone, concentration not given, duplicates): 44%
direct inhibition of CYP3A4/5 (in words) (CYP3A4 [8]; midazolam 1′-hydroxylase and testosterone 6β-hydroxylase, up to 12.5 μM): low potential to cause direct inhibition; also recorded: some inhibition
time-dependent inhibition (in words) (CYP2C19): did not show any significant reversible or time-dependent inhibition; also recorded: No significant reversible or time-dependent inhibition; also recorded: No significant time-dependent inhibition; also recorded: low potential to cause direct or time-dependent inhibition
time-dependent inhibition (in words) (CYP2C8 [9]): did not show any significant reversible or time-dependent inhibition; also recorded: No significant reversible or time-dependent inhibition; also recorded: No significant time-dependent inhibition; also recorded: low potential to cause direct or time-dependent inhibition
